Test results published in US20240207302A1, “ANTIVIRAL COMPOUNDS, METHODS FOR THE MANUFACTURING OF COMPOUNDS, ANTIVIRAL PHARMACEUTICAL COMPOSITION, USE OF THE COMPOUNDS AND METHOD FOR THE ORAL TREATMENT OF CORONAVIRUS INFECTION AND RELATED DISEASES THEREOF” (priority 2021, published 2024).

Assays:
[1] = tested on: SARS-COV-2; assay: SARS-COV-2 viral RNA synthesis in Calu-3 cells (real time RT-PCR); type: cell-based; settings: 1.0 μM
[2] = Cytotoxicity assay (XTT) in Calu-3 cells; type: cell-based, human; settings: human, Calu-3 cells, Table 6
Description: In parallel, cytotoxicity assays were performed.

[3] = tested on: SARS-COV-2; assay: SARS-COV-2 RNA loads in human primary monocytes; type: cell-based; settings: 24 h
Description: (§1) FIG. 5A, 5B and 5C. The compounds impair SARS-COV-2 RNA synthesis and SARS-COV-2-induced release of inflammatory mediators in human primary monocytes.
(§2) Human primary monocytes were obtained after 3 h of plastic adherence of peripheral blood mononuclear cells (PBMCs). PBMCs were isolated from healthy donors by density gradient centrifugation (Ficoll-Paque, GE Healthcare). PBMCs (2.0×10^6 cells) were plated onto 48-well plates (NalgeNunc) in RPMI-1640 without serum for 2 to 4 h. Non-adherent cells were removed, and the remaining monocytes were maintained in DMEM with 5% human serum (HS; Millipore) and penicillin/streptomycin. Monocytes were infected at MOI of 0.1. After 1 h inoculation period, cells were washed with phosphate saline buffer (PBS) to remove unbounded viruses and treated with 1 μM of the indicated compounds. After 24 h after infection, cell monolayers werc lysed total viral RNA was extracted, quantitative RT-PCR was performed, to detect the SARS-COV-2 and the housekeeping gene RNAse P.

[4] = tested on: TNF-α and IL-6; assay: TNF-α and IL-6 levels in supernatant of SARS-COV-2-infected human primary monocytes; type: cell-based; settings: 24 h
Description: as §1, §2

[5] = Maximum tolerated dose (OECD 425) and tolerability; type: in vivo; settings: mice
Description: The present assay was designed to investigate the safety and tolerability of MB-905. For the MTD assay (OECD 425), mice (3 animals of each sex/group) were divided into five experimental groups and the up and down procedure was applied to which 175 mg/kg was used as the first dose. […] Mortality, morbidity, body weight, food consumption, general and detailed clinical signs of toxicity were evaluated. At necropsy, vital (brain, heart, liver, spleen, kidneys and adrenal glands) and reproductive organs (ovaries, testicles and epididymis) were carefully removed, weighed and stored for further analysis (if necessary).

[6] = tested on: Salmonella typhimirium TA 97a, TA 98, TA 100, TA 102 and TA 1535; assay: Bacterial reverse mutation (Ames) test
[7] = target: human ERG potassium channel (ether-a-gogo-related gene, Kv11.1) (Homo sapiens, UniProt Q12809); assay: hERG FLIPR Potassium assay in HEK293 cells; settings: up to 300 μM
Chain of human ERG potassium channel (ether-a-gogo-related gene, Kv11.1) (Q12809 whole entry): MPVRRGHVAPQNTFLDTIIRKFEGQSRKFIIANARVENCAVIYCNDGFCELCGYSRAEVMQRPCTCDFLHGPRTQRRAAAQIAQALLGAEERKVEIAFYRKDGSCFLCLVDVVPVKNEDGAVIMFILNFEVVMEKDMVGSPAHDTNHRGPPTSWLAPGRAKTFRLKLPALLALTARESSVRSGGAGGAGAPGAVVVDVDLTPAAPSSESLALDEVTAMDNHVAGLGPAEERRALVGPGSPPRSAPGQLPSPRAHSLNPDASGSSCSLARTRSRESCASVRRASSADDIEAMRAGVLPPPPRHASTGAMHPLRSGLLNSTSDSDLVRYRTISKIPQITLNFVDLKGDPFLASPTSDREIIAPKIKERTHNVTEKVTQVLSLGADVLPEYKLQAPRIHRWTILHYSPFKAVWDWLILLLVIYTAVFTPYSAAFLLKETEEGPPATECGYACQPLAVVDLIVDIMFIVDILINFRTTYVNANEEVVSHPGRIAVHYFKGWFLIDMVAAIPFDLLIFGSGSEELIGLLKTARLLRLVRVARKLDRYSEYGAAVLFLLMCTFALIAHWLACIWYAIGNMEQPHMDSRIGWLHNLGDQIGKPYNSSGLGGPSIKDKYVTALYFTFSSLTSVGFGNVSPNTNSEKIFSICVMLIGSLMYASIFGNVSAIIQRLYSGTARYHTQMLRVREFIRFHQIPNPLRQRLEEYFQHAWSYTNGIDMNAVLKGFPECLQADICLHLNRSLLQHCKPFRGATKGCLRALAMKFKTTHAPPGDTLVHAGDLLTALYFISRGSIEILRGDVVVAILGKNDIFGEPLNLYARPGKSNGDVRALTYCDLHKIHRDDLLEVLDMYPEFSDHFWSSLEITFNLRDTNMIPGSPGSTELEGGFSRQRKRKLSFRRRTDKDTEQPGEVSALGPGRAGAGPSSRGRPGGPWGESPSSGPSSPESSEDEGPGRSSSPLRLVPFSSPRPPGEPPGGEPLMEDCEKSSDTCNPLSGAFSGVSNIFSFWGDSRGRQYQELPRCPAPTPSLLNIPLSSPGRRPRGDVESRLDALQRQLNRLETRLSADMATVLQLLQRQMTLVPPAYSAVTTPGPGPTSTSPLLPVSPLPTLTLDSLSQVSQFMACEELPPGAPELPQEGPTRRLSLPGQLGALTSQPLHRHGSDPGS

## c1coc(CNc2ncnc3[nH]cnc23)c1 [MB-905, kinetin]
[1]
  inhibition of SARS-COV-2 RNA synthesis: best profiles
[2]; Calu-3, daily treatment
  CC50 at 3 days: 538 µM
[2]; Calu-3, single treatment
  CC50 at 3 days: 620 µM
[3]
  viral RNA levels/cell: reduced
[4]
  SARS-CoV-2-induced enhancement of IL-6 levels in culture supernatant: reduced
  SARS-CoV-2-induced enhancement of TNF-α levels in culture supernatant: reduced
[5]; both sexes, mouse, in vivo, oral, MTD study
  NOAEL at 7 days: 550 mg/kg
[5]; 1,150 mg/kg oral
  clinical signs: piloerection, reduced touch response, prostration, loss of grasping strength, decrease in body temperature and death
  death after compound administration, time: ≤ 4 h
[5]; 175, 550 and 850 mg/kg oral
  clinical signs: did not result in any observable clinical signs indicating toxicity
  morbidity and mortality: did not result in any signs indicative of toxicity
[5]; single 175, 550 or 850 mg/kg
  body weight change and food consumption: not observed any significant change
[5]; single oral 175, 550 or 850 mg/kg
  organs weight: did not show any changes
[6]; TA 97a +S9, 8 μg/mL
  Mutagenicity: −
[6]; TA 97a +S9, 40 μg/mL
  Mutagenicity: −
[6]; TA 97a +S9, 200 μg/mL
  Mutagenicity: −
[6]; TA 97a +S9, 1,000 μg/mL
  Mutagenicity: −
[6]; TA 97a +S9, 5,000 μg/mL
  Mutagenicity: −
[6]; TA 97a −S9, 8 μg/mL
  Mutagenicity: −
[6]; TA 97a −S9, 40 μg/mL
  Mutagenicity: −
[6]; TA 97a −S9, 200 μg/mL
  Mutagenicity: −
[6]; TA 97a −S9, 1,000 μg/mL
  Mutagenicity: −
[6]; TA 97a −S9, 5,000 μg/mL
  Mutagenicity: −
[6]; TA 98 +S9, 8 μg/mL
  Mutagenicity: −
[6]; TA 98 +S9, 40 μg/mL
  Mutagenicity: −
[6]; TA 98 +S9, 200 μg/mL
  Mutagenicity: −
[6]; TA 98 +S9, 1,000 μg/mL
  Mutagenicity: −
[6]; TA 98 +S9, 5,000 μg/mL
  Mutagenicity: −
[6]; TA 98 −S9, 8 μg/mL
  Mutagenicity: −
[6]; TA 98 −S9, 40 μg/mL
  Mutagenicity: −
[6]; TA 98 −S9, 200 μg/mL
  Mutagenicity: −
[6]; TA 98 −S9, 1,000 μg/mL
  Mutagenicity: −
[6]; TA 98 −S9, 5,000 μg/mL
  Mutagenicity: −
[6]; TA 100 +S9, 8 μg/mL
  Mutagenicity: −
[6]; TA 100 +S9, 40 μg/mL
  Mutagenicity: −
[6]; TA 100 +S9, 200 μg/mL
  Mutagenicity: −
[6]; TA 100 +S9, 1,000 μg/mL
  Mutagenicity: −
[6]; TA 100 +S9, 5,000 μg/mL
  Mutagenicity: −
[6]; TA 100 −S9, 8 μg/mL
  Mutagenicity: −
[6]; TA 100 −S9, 40 μg/mL
  Mutagenicity: −
[6]; TA 100 −S9, 200 μg/mL
  Mutagenicity: −
[6]; TA 100 −S9, 1,000 μg/mL
  Mutagenicity: −
[6]; TA 100 −S9, 5,000 μg/mL
  Mutagenicity: −
[6]; TA 102 +S9, 8 μg/mL
  Mutagenicity: −
[6]; TA 102 +S9, 40 μg/mL
  Mutagenicity: −
[6]; TA 102 +S9, 200 μg/mL
  Mutagenicity: −
[6]; TA 102 +S9, 1,000 μg/mL
  Mutagenicity: −
[6]; TA 102 +S9, 5,000 μg/mL
  Mutagenicity: −
[6]; TA 102 −S9, 8 μg/mL
  Mutagenicity: −
[6]; TA 102 −S9, 40 μg/mL
  Mutagenicity: −
[6]; TA 102 −S9, 200 μg/mL
  Mutagenicity: −
[6]; TA 102 −S9, 1,000 μg/mL
  Mutagenicity: −
[6]; TA 102 −S9, 5,000 μg/mL
  Mutagenicity: −
[6]; TA 1535 +S9, 8 μg/mL
  Mutagenicity: −
[6]; TA 1535 +S9, 40 μg/mL
  Mutagenicity: −
[6]; TA 1535 +S9, 200 μg/mL
  Mutagenicity: −
[6]; TA 1535 +S9, 1,000 μg/mL
  Mutagenicity: −
[6]; TA 1535 +S9, 5,000 μg/mL
  Mutagenicity: −
[6]; TA 1535 −S9, 8 μg/mL
  Mutagenicity: −
[6]; TA 1535 −S9, 40 μg/mL
  Mutagenicity: −
[6]; TA 1535 −S9, 200 μg/mL
  Mutagenicity: −
[6]; TA 1535 −S9, 1,000 μg/mL
  Mutagenicity: −
[6]; TA 1535 −S9, 5,000 μg/mL
  Mutagenicity: −
[6]; all strains, absence and presence of S9
  mutagenic activity in the reverse mutation test: no mutagenic activity
[7]
  inhibition of potassium permeation through the hERG channel: about 20%
